This note sets out measurements from a melting point compilation (Tetko et al.; mined from patent text by program, amines drawn as free bases though some values may be those of a salt).

A value given as a limit tells only on which side of the number the result lay.

On to `CN1CC(c2ccc(S(C)(=O)=O)cc2)=C(c2cccc(Cl)c2)C1=O`, for which the melting point lay in the range of 168 to 170 °C.

Compound `ClCCOc1c2ccccc2c(OCCCl)c2ccccc12` gave a melting point of 143 to 145 °C.

With `CCN(CC)c1ccc(C2(c3ccc(N(C)C)cc3)OC(=O)c3c(Cl)c(Cl)c(Cl)c(Cl)c32)c(N(CC)CC)c1` (configuration not stated), the melting point was in the range of 174 to 176 °C.

In the case of `N#CCc1cc(Cl)cc2c(-c3ccc(Cl)cc3)onc12`, the melting point was 187 to 190 °C.

`O=C(O)CCCCCCOc1ccc(OCc2ccccc2)cc1`: the melting point is 118 to 119 °C.

Compound `NC(=NCC(F)(F)F)Nc1ccnc(OCCCc2ccccn2)n1` showed a melting point of 118 to 120 °C.

Turning to `COc1ccc(NC(=O)c2ccccc2NS(=O)(=O)c2ccc(C)cc2)cc1Cl`, the melting point fell in the range of 181 to 182 °C.

With `CCc1ccc(-n2c(-c3ccccn3)nc(SC)c(C#N)c2=O)cc1`, the melting point lay within 172 to 175 °C.

`CC(C)n1nc(-c2nc(O)cnc2-c2ccccc2)ccc1=O`: the melting point is 198 to 200 °C.

`CCOC(=O)CCC1Cc2cc(O)ccc2NC1=O` (configuration not stated) displayed a melting point of 138 °C.

In turn, `Nc1cc(Oc2ccc(NC(=O)Nc3ccc(-c4ccccn4)c(C(F)(F)F)c3)cc2)ncn1` displayed a melting point of 188 to 192 °C.

Regarding `CC[C@@H](c1ccccc1)N(Cc1ccc(C(=O)O)cc1)S(=O)(=O)c1ccc(F)c(F)c1`, the melting point lay within 108 to 109 °C.

`CNC(=O)c1ccccc1Nc1nc(Nc2ccc3c(c2)CCOCC3)ncc1Cl`: the melting point was 185 °C.

For the compound `C=C(C)C(=O)Nc1ccc2ccc(Cl)nc2n1`, the melting point is 182 °C.

The compound `Cc1nc2ccccc2c(=O)n1CCN1CCC(C(=O)c2ccc(F)cc2)CC1` came in with a melting point of 165 °C.

For `Cn1ccc2cc(N3Cc4c(N)cccc4C3=O)ccc21`, the melting point was 198 to 203 °C.

The compound `O=[N+]([O-])c1ccc(N2CC(O)C2)c(F)c1` showed a melting point of 130 to 132 °C.

As to `N#Cc1cccc(-c2ccc3c(Cl)cnc(NC(=N)N)c3c2)c1`, the melting point was more than 300 °C.

Regarding `CC1(C)CCCC2(C)CC12/C=C/C(=O)N1CCN(C(N)=O)CC1` (configuration not stated), the melting point was in the range of 166 to 168 °C.

Compound `COCCOc1ccc(/C=C(\C)C(=O)NS(=O)(=O)c2ccc(Cl)cc2)c(Oc2ncc(C(F)(F)F)cc2Cl)c1` yielded a melting point of 146 °C.

Compound `CNC(=S)N1Cc2ccccc2C2(Cc3ccccc3O2)C1` (configuration not stated) registered a melting point of 165 °C.

For `CN(C)C(=O)OC1c2ccccc2C(=O)N1c1ccc2ccc(Cl)nc2n1` (configuration not stated), the melting point lay within 217 to 218 °C.

As to `C#CC1(NC(=O)C(CCN2CCN(c3ccccc3OC)CC2)c2ccccc2)CCCCC1` (configuration not stated), the melting point is 127 to 129 °C.

Compound `O=C(O)CCc1[nH]c2cc(Cl)cc(Cl)c2c1Br` displayed a melting point of 228 °C.

Consider `O=C(Nc1cccc(NC(=O)C(F)(F)F)c1)Nc1ccc(Cl)c(Cl)c1`, for which the melting point fell in the range of 221 to 223 °C.

`Cc1cccc(C(=O)C=CN(C)C)n1` registered a melting point of 97 to 98 °C.

`CCOC(=O)c1ncn2c1CN(C)C(=O)c1ccccc1-2` yielded a melting point of 163 to 165 °C.

In turn, `O=C(Nc1ccc(C(=O)N2Cc3ccccc3Nc3ccccc32)c(Cl)c1)c1ccccc1-c1ccccc1` showed a melting point of 158 to 184 °C.

Consider `CC(=O)C(C(=O)OC(C)(C)C)C(=O)c1ccc(C(=O)C(C(C)=O)C(=O)OC(C)(C)C)cc1` (configuration not stated), for which the melting point was 94 to 96 °C.

As for `CC1(c2ccccc2)C(=O)Nc2cc(Cl)c(Cl)cc2C1=O` (configuration not stated), the melting point was in the range of 213 to 214 °C.

Compound `CCCOc1ccc(CCC(=O)N2CCN(C)CC2)cc1-c1nc2c(C)cccc2c(=O)[nH]1` had a melting point of 184 to 185 °C.

`NCCCCn1ccnc1-c1ccccc1` returned a melting point of 82 to 84 °C.

Regarding `N#CC(S)(CCC(=O)O)C1=NCCc2ccccc21` (configuration not stated), the melting point was in the range of 149 to 150 °C.

`C[C@@H]1Cc2ccsc2[C@H](C)N1CCNC(=O)c1ccc(NC(=O)C(F)(F)F)cc1` (relative stereo): the melting point lay in the range of 174 to 177 °C.

In turn, `CCOC(=O)C(C)(C)n1c(=O)[nH]c2ccc(C)cc2c1=O` displayed a melting point of 156 to 157 °C.

For `O=C(N[C@H]1CN(C(=O)N2CCC[C@H]2C(=O)O)C1=O)c1ccccc1`, the melting point is 148 to 151 °C.

On to `N#Cc1ccsc1C1=CC(=O)Nc2cc(-c3ccccc3F)ccc2N1`, for which the melting point lay in the range of 238 to 240 °C.

`CCOC(=O)c1cn(C2CC2)c2cc(F)c(F)c(C)c2c1=O` registered a melting point of 185 to 187 °C.

As for `CC(C)c1nc(C(O)(C(F)(F)F)C(F)(F)F)[nH]c1-c1ccc([N+](=O)[O-])cc1`, the melting point lay within 157 to 160 °C.

Take `CN1CCN(C2Cc3ccccc3Sc3cc(F)c(F)cc32)CC1` (configuration not stated): the melting point lay within 106 to 108 °C.

`CN1C(=O)CC[C@]2(C)c3ccc(-c4ccc(C(F)(F)F)cc4)cc3CC[C@@H]12`: the melting point was 86 to 89 °C.

On to `CCOC(=O)N1CCN(c2ccc(C(=O)CCc3ccc(N)cc3)cc2)CC1`, for which the melting point was 106 to 107 °C.

In the case of `CNC(=O)Nc1ccc(C2=NNC(=O)CC2C)cn1` (configuration not stated), the melting point is 257 to 259 °C.

`Cn1c(-c2ccc(C(O)(C(F)(F)F)C(F)(F)F)cc2)cc2ccccc2c1=O` registered a melting point of 265 to 266 °C.

`CCn1c(-c2ccc(Cl)cc2)nn(C)c1=O` yielded a melting point of 73 to 75 °C.

Regarding `CC1(C)CC(=O)C2=C(C1)NC1=C(C(=O)CC(C)(C)C1)C2c1ccc(Cl)c(Sc2ccccc2)c1`, the melting point is 202 to 204 °C.

Compound `CCCCCCCCCCCCCCCCCC(=O)c1ccc(O)c(C(=O)OC(C)C)c1` returned a melting point of 72 to 73 °C.

`Oc1cccc(-c2cc3n(n2)-c2ccccc2CC3)c1` gave a melting point of 172 to 175 °C.

Take `CC(C)(C)OC(=O)NCC1=CC(c2ccccc2)Cc2c1ccc(OC(=O)C(C)(C)C)c2OC(=O)C(C)(C)C` (configuration not stated): the melting point fell in the range of 64 to 69 °C.

Compound `COc1ccc(OC)c(C2CC=CCC2[N+](=O)[O-])c1` (configuration not stated) yielded a melting point of 73 to 75 °C.

`Nc1ccccc1CN(N)c1ccc(Cl)cc1` displayed a melting point of 83 to 87 °C.

In the case of `CC1(C)OC[C@H](Cc2ccccc2)N1C(=O)Cn1cc(I)cn1`, the melting point lay in the range of 117 to 120 °C.

Compound `COc1nc(C(F)(F)C(F)(F)F)c(F)c(=O)n1-c1cc(C(=O)OC(C)C)c(Cl)cc1F` gave a melting point of 75 to 77 °C.

`CCSCCn1c(=N)sc2cc(OC(F)(F)C(F)(F)F)ccc21` yielded a melting point of less than 50 °C.

`O=c1c(Br)c(OCc2ccc(Cl)cc2F)cnn1-c1ccc(Cl)c(Cl)c1` displayed a melting point of 172 to 173 °C.

`O=C(O)Cc1cnn(-c2ccc(Cl)cc2)c1-c1ccc(Cl)cc1` registered a melting point of 195 to 196 °C.

Regarding `ClC1=Nc2cccc(Br)c2C2=NCCN12`, the melting point was in the range of 220 to 223 °C.

On to `COc1nc(C)cnc1NS(=O)(=O)c1cccnc1-c1ccc(-c2ncon2)cc1`, for which the melting point lay within 179 to 180 °C.

Take `COC(=O)c1ccc(CNC(=O)C2Cc3ccccc3N2S(=O)(=O)c2ccc(-c3cccc(C(F)(F)F)c3)cc2)c(Cl)c1` (configuration not stated): the melting point fell in the range of 78 to 87 °C.

For `O=c1c2ccccc2sc2c(OCc3ccccc3)ccc(Cl)c12`, the melting point was in the range of 139 to 140 °C.

Compound `CN(C)CCn1c(-c2ccc(Cl)cc2)cc2c1CCSC2` had a melting point of 91.5 to 92.5 °C.

The compound `CCCCCP(=O)(CC(=O)OC)OCc1ccc(-c2ccccc2C(=O)O)cc1` (configuration not stated) came in with a melting point of 101 to 102 °C.

Regarding `C[C@]1(COc2ccc(N3CCC(OCC=Cc4ccc(OC(F)(F)F)cc4)CC3)cc2)Cn2cc([N+](=O)[O-])nc2O1`, the melting point is 214 to 217 °C.

`c1ccc(CN2CCOC(CN3c4ccccc4CCc4ccccc43)C2)cc1` (configuration not stated) showed a melting point of 139 to 140 °C.

As to `CCCCCCCCCCCCCCCCCCOc1ccc(OCCCc2ccccc2)c(C(=O)N(CC(=O)OCC)CC(=O)OCC)c1`, the melting point fell in the range of 54 to 55 °C.

In turn, `COc1c(C(=O)O)nc(Br)c(Cl)c1N` registered a melting point of 154 to 156 °C.

Consider `CC(C)(C)OC(=O)NCC(=O)Nc1ccc2c(c1)-c1c(c(C(=O)C(C#N)C(=O)Nc3ccccc3)nn1-c1ccccc1)CS2` (configuration not stated), for which the melting point is 190 to 200 °C.

The compound `CN(C)c1ccc2nc(N)c(C#N)c(Cl)c2c1` yielded a melting point of 285 °C.

As for `COC(=O)c1cc(N)c(Oc2ccccc2)c(N)c1`, the melting point is 140 to 142 °C.

Compound `COc1ccc(C(C)CN2C=CC=C3C2=Nc2cc(OC)ccc2S(=O)(=O)N3C)cc1` (configuration not stated) yielded a melting point of 128 to 131 °C.

`CN(C)C1=Nc2ccccc2C(O)(c2ccccc2)C1(C)C` (configuration not stated) returned a melting point of 170 to 173 °C.

As to `C=CCN1CCC(O)(c2cc(F)cc(F)c2)C1` (single isomer, unassigned; (-)), the melting point was in the range of 102 to 103 °C.

The compound `CC(=O)Nc1c(C(=O)c2ccccc2)[nH]c2cc(N)ccc12` had a melting point of 219 to 221 °C.

`CCOC(=O)Cn1cc(C(=O)NCc2ccc(Cl)cc2Cl)c(OCC)n1` had a melting point of 120 to 121 °C.

`N[C@@H](Cc1ccccc1)C(O)(c1ccccc1)c1ccccc1` registered a melting point of 141 to 142 °C.

Compound `CCOC(=O)c1cn(CC)c2cc(C3CCCCC3)c(OC)cc2c1=O` returned a melting point of 154 to 156 °C.

`CC(C)(O)Cc1c(Br)cnc2c(NC(=O)c3c(Cl)cccc3Cl)cccc12` had a melting point of 260 to 262 °C.

As to `NC(=O)c1cc([N+](=O)[O-])c(Oc2ccccc2)c(S(N)(=O)=O)c1`, the melting point lay in the range of 255 to 256 °C.

For `CCCCCCCCN=C1SC(=CC(=O)O)C(=O)N1CCCCCCCC`, the melting point lay in the range of 57 to 61 °C.

`CCOC(=O)/C=C(C)/C(F)=C/C=C(\C)C=O` displayed a melting point of 70 to 74 °C.

As to `CCOC(=O)c1ccccc1Nc1ccc(OC)cc1C`, the melting point lay within 42 to 43 °C.

Take `CC1=C(C)C(=O)C(CC[C@](C)(O)CO)=C(C)C1=O`: the melting point fell in the range of 109 to 112 °C.

Consider `CC(=O)Nc1ccc(C(=O)Oc2ccccc2)c(OC(C)=O)c1`, for which the melting point was in the range of 142 to 143 °C.

As to `COC(=O)/C=C/c1ccc(/C=C/c2ccncc2)nc1`, the melting point is more than 143 °C.

Turning to `COc1ccc(CNc2ncnc3c2ncn3C2OC(Cn3cc(Cc4ccccc4)nn3)C(O)C2O)cc1` (configuration not stated), the melting point was 123 to 124 °C.

`CN1CCN(c2ccc(C#N)nn2)CC1` came in with a melting point of 149 °C.

Compound `COc1ccc(CN2C(=O)C3(COc4cc(OC(F)(F)F)ccc43)c3ccccc32)cc1` (configuration not stated) registered a melting point of 82 to 84 °C.

As usually defined, the melting point is the temperature of the solid-liquid transition.
